# In patent US10799456B2, “Multiple drug lipid nanoparticle composition and related methods for extended drug levels in blood and lymph tissue” (priority 2015, dated 2020):
# Legend:
# [1] = DPH fluorescence anisotropy, lipid phase transition temperature; type: physicochemical
# Procedure: To evaluate the change in membrane fluidity due to drug insertion into the lipid membrane, 0.1% 1,6-diphenyl-1,3,5-hexatriene (DPH) was used as an intra-membrane probe.^18,20 Briefly, to incorporate DPH into the lipid membrane, 2 μL of 2 mM DPH in tetrahydrofuran was added to the lipid nanoparticle suspension with or without drug. The final preparation was incubated at 60° C. (above the 55° C. DSPC phase transition temperature) for 30 min, then slowly cooled to room temperature over 15 min. […] A water-jacketed cuvette holder connected to a circulating water bath (PolyScience, model 1162, Niles, Ill.) was used to control the temperature within the cuvette, which was measured by a digital thermometer. The cuvette was allowed to equilibrate for 10 min before taking each temperature reading. The fluorescence intensities, both parallel and perpendicular to the emission light, were measured continuously with a F-4500 fluorescence spectrometer (Hitachi, Minato-ku, Tokyo, Japan) set at kex/em=360/430 nm; both excitation and emission slits were 5 nm. Fluorescence anisotropy response, r, was calculated by the equation: […]
# The fluorescence anisotropy response versus temperature curve was generated by non-linear regression using SigmaPlot software (11.0 version, Systat Software, Inc., San Jose, Calif.). […]
# [2] = Particle size by photon correlation spectroscopy; type: physicochemical
# Procedure: The mean particle size of lipid-drug nanoparticles and liposome control was determined by photon correlation spectroscopy (PCS) using a NICOMP™ 380ZLS instrument (NICOMP Particle Sizing Systems, Santa Barbara, Calif.). […] Samples were diluted with the same buffer to an identical final volume to analyze concentration effects. The light scattering data were analyzed based on intensity-weight NICOMP size distribution and expressed as a mean±SD.
# Briefly, lipids and protease inhibitors were dissolved in chloroform:ethanol (3:1 v/v) and PMPA was added from a stock solution of 30 mg/ml in aqueous 150 mM NaHCO3. Solvent was removed by rotary evaporation and vacuum desiccation. The dry film was rehydrated to 200 mM lipid in 0.4% NaCl with 20 mM NaHCO3 buffer at 60° C. Particle size was reduced at 60° C. by bath sonication (laboratory scale) or high-pressure homogenization using an Emulsiflex-05 (Avestin, Ottawa, Canada) (clinical scale). LNPs were maintained at 60° C. to anneal for 30 min prior to cooling and stored at 4° C. Particle size was determined by photon correlation spectroscopy using a NICOMP 380 ZLS (Particle Sizing Systems, Santa Barbara, Calif.).
# [3] = Drug incorporation efficiency into lipid-drug nanoparticles (dialysis); type: physicochemical; details: for Incorporation efficiency (%): DSPC:DSPE-mPEG2000 8:2
# Procedure: J Acquir Immune Defic Syndr. […] Journal of pharmaceutical sciences. […] The AAPS journal. […] Residual solvent was removed overnight by vacuum desiccation. The dried lipid-drug film was then rehydrated with 0.9% NaCl containing 20 mM sodium bicarbonate (pH 7.4). The lipid-drug samples were allowed to hydrate at 60° C. for 2 h. Then samples were sonicated (laboratory scale) or homogenized (preclinical scale) to achieve a homogenous suspension.
# The incorporation efficiency was calculated as the ratio of the amount of incorporated drug over the total amount of drug loaded multiplied by 100%.
# [4] = % Drug association to particles by assembly method; type: physicochemical
# Text: Select one or two drugs hydrophilic and water soluble (Class 2) drugs listed in Table 19 (for example, tenofovir and/or emtricitabine and/or lamivudine). • 3. Select the excipient combination (for example, 9 parts DSPC and 1 part PEG-DSPE). • 4. Prepare a single-phase miscible solvent that enables full solubilization of the chosen water-insoluble Class 1 drugs and water soluble Class 2 drugs plus the excipients from step 3. Examples include CHCl3:Methanol:Water (65:35:4); CHCl3:Ethanol:Water (65:35:4); CHCl3:Propanol:Water (65:35:4); and CHCl3:Hexanol:Water (65:35:4). • 5. The components in Steps 1, 2 and 3 are solubilized with the miscible solvent in step 4. • 6. The drugs (steps 1 and 2) as well as excipients (step 3) and the miscible solvent (step 4) are dried under reduced pressure with assistance of a combination of heat, reduced pressure and/or aerosolization to provide for uniformity and efficiency of drying. • 7. The dehydrated composition is heated above gel-to-liquid phase transition temperature of the excipient mixture (e.g., 50° C.). • 8. A buffered saline solution is prepared and the temperature is equilibrated to the same temperature as dehydrated composition. • 9. The buffered saline solution and dehydrated composition are gradually combined and maintained at the defined (e.g., 50° C.) for 3 hr. • 10. The resulting hydrated multi-drug lipid nanoparticles are size-reduced by sheering or forcing through small orifice or pressurized filter apparatus while maintaining at the defined temperature (in liquid phase of lipidic excipients).
# [5] = Tables 20 and 21; cited from earlier work
# [6] = Octanol-buffer distribution coefficient (shake-flask); type: physicochemical; details: room temperature
# Procedure: The octanol-buffer drug distribution coefficient at room temperature was determined by a small-scale, shake-flask method described by Dittert L W, et al. Phase Solubility Technique in Studying the Formation of Complex Salts of Triamterene. Journal of pharmaceutical sciences. […] Briefly, phosphate-buffered saline (PBS) at pH 3, 5, and 7.4 was used as the aqueous phase. […] The mixture was centrifuged at 14,000 rpm (18,078 g) (Beckman Coulter™ Microfuge® 18 centrifuge, Beckman Coulter Inc., Brea, Calif.) to separate octanol and the aqueous phase. The drug concentration in the two phases was determined with high-performance liquid chromatography tandem mass spectrometry (HPLC/MS/MS). The distribution coefficient was calculated as the ratio of the drug concentration in the octanol phase to the drug concentration in the aqueous phase. Triplicate samples were used at each pH.
substance,measurement,setting,value
Darunavir [Darunavir (DRV)],reduction of TC,"[1]; lipid-to-drug 8:1, vs control LNPs",1.6 °C
same,phase transition temperature (TC),[1]; lipid-to-drug molar ratio 8:1,53.3 °C
same,Particle size (nm),[2]; lipid:drug 5:1 mol/mol,33.6 ± 3.1 nm
same,Particle size (nm),[2]; lipid:drug 8:1 mol/mol,35.6 ± 3.9 nm
same,Particle size (nm),[2]; lipid:drug 20:1 mol/mol,35.6 ± 3.7 nm
same,Incorporation efficiency (%),[3]; lipid:drug 5:1 mol/mol,88.1 ± 3.8%
same,Incorporation efficiency (%),"[3]; lipid:drug 5:1 mol/mol, listed as DRV",88.1%
same,Incorporation efficiency (%),[3]; lipid:drug 8:1 mol/mol,94.4 ± 2.8%
same,Incorporation efficiency (%),"[3]; lipid:drug 8:1 mol/mol, listed as DRV",94.4%
same,Incorporation efficiency (%),[3]; lipid:drug 20:1 mol/mol,96.6 ± 4.8%
same,Incorporation efficiency (%),"[3]; lipid:drug 20:1 mol/mol, listed as DRV",96.6%
same,drug incorporation efficiency,[3]; prepared at 0.5 mM lipid,58%
same,drug incorporation efficiency,[3]; prepared at 5 mM lipid,95%
same,"% Drug Association to Particles, LNPs from mixture of dual solvent method",[4],97%
same,Hydrophobicity (Log P),[5],1.8
same,Log D (measured),"[6]; pH 3, octanol/PBS",2.98
same,Log D (measured),"[6]; pH 5, octanol/PBS",2.80
same,Log D (measured),"[6]; pH 7.4, octanol/PBS",2.84
